Values of other authors as cited in US20260130928A1, “COMBINATION OF AKR1C3 ACTIVATED ANTICANCER PRODRUG COMPOUND AND ANALGESIC DRUG FOR TREATING CANCER PATIENTS ACCOMPANIED BY PAIN” (ASCENTAWITS PHARMACEUTICALS, LTD., priority 2022, published 2026).
Like-named read-outs stand apart in the source and are kept apart here.

Conditions: cited from earlier work; for AUC0-t / CL (L/h/m^2) / Cmax / T1/2 / Tmax / Vdss (L/m^2): patients, mean
[1] = OBI-3424 dose level 1 mg/m^2, infusion
[2] = OBI-3424 dose level 2 mg/m^2, infusion
[3] = OBI-3424 dose level 4 mg/m^2, infusion
[4] = OBI-3424 dose level 6 mg/m^2, infusion
[5] = OBI-3424 dose level 8 mg/m^2, infusion
[6] = OBI-3424 dose level 10 mg/m^2, infusion
[7] = OBI-3424 dose level 12 mg/m^2, infusion
[8] = OBI-3424 dose level 14 mg/m^2, infusion

C[C@H](OP(=O)(N1CC1)N1CC1)c1ccc([N+](=O)[O-])c(Oc2cccc(C(=O)N(C)C)c2)c1 [AST-3424]
AUC0-t [1]: 217.10 ng·h/mL
CL (L/h/m^2) [1]: 4.74 L/h/m^2
Cmax [1]: 289.30 ng/mL
T1/2 [1]: 17.4 min
Tmax [1]: 27.6 min
Vdss (L/m^2) [1]: 2.45 L/m^2
AUC0-t [2]: 298.00 ng·h/mL
CL (L/h/m^2) [2]: 8.85 L/h/m^2
Cmax [2]: 375.80 ng/mL
T1/2 [2]: 18.6 min
Tmax [2]: 30 min
Vdss (L/m^2) [2]: 4.13 L/m^2
AUC0-t [3]: 650.90 ng·h/mL
CL (L/h/m^2) [3]: 7.74 L/h/m^2
Cmax [3]: 803.50 ng/mL
T1/2 [3]: 12.6 min
Tmax [3]: 19.8 min
Vdss (L/m^2) [3]: 2.68 L/m^2
AUC0-t [4]: 1278.10 ng·h/mL
CL (L/h/m^2) [4]: 4.84 L/h/m^2
Cmax [4]: 1360.30 ng/mL
T1/2 [4]: 44.4 min
Tmax [4]: 30 min
Vdss (L/m^2) [4]: 3.72 L/m^2
AUC0-t [5]: 1678.40 ng·h/mL
CL (L/h/m^2) [5]: 6.53 L/h/m^2
Cmax [5]: 1613.10 ng/mL
T1/2 [5]: 40.2 min
Tmax [5]: 25.2 min
Vdss (L/m^2) [5]: 3.97 L/m^2
AUC0-t [6]: 2037.00 ng·h/mL
CL (L/h/m^2) [6]: 4.92 L/h/m^2
Cmax [6]: 2654.70 ng/mL
T1/2 [6]: 34.2 min
Tmax [6]: 30 min
Vdss (L/m^2) [6]: 3.06 L/m^2
AUC0-t [7]: 2159.40 ng·h/mL
CL (L/h/m^2) [7]: 8.20 L/h/m^2
Cmax [7]: 2481.90 ng/mL
T1/2 [7]: 33 min
Tmax [7]: 26.4 min
Vdss (L/m^2) [7]: 4.33 L/m^2
AUC0-t [8]: 2131.80 ng·h/mL
CL (L/h/m^2) [8]: 8.49 L/h/m^2
Cmax [8]: 2619.20 ng/mL
T1/2 [8]: 33 min
Tmax [8]: 25.2 min
Vdss (L/m^2) [8]: 4.31 L/m^2
accumulation of exposure (Cmax and AUC) (between the two doses (Cycle 1 Day1 and Cycle 1 Day8)): no accumulation of exposure
